Each structure is given as a SMILES string.

Series [1] is described as follows: Cytotoxicity against human MT4 cells by MTT assay. The class given is cell-based. (Tetrazolium dyes change colour on reduction, which living cells bring about.)
Series [2] relates to Human immunodeficiency virus 1. Briefly: Antiviral activity against wild type HIV-1 infected in human MT4 cells by MTT assay. The format is functional, organism-based. The note with it: Human immunodeficiency virus 1, MT4.
The subject of series [3] is Human immunodeficiency virus 1. Put plainly: Antiviral activity against HIV-1 harbouring T174I mutant infected in human MT4 cells by MTT assay. The note with it: Human immunodeficiency virus 1, MT4. The class given is functional, organism-based.
A short description of series [4]: Elimination half-life in rat at 0.5 mg/kg, iv or 1 mg/kg, po. The format is ADME, organism-based. The note with it: in vivo, read-out: LambdaZ (converted).
Series [5] can be described thus: Oral bioavailability in rat at 1 mg/kg. The class given is ADME, organism-based. The note with it: in vivo.
The nature of series [6]: AUC in rat at 0.5 mg/kg, iv. The format is ADME, organism-based. The note with it: in vivo. Set-up: dose 0.5 mg/kg.
A short description of series [7]: Total clearance in rat at 0.5 mg/kg, iv or 1 mg/kg, po. The format is ADME, organism-based. The note with it: in vivo.
Series [8] is described as follows: Metabolic stability in human liver microsomes assessed as parent compound remaining. The format is ADME, Microsome. In general terms: Microsomes from liver hold many membrane-bound enzymes, among them those of drug oxidation.
The nature of series [9]: Metabolic stability in rat liver microsomes assessed as parent compound remaining. The format is ADME, Microsome.

What is called CC50 is the concentration that lowers cell viability or growth by half. Higher therefore signals lower toxicity to the cells. The EC50 is the concentration that produces a half-maximal response. `Cc1nc(NC(=O)NC2CCCCC2)c(C)c(C(OC(C)(C)C)C(=O)O)c1-c1ccc2c(c1)NCCO2` (stereo not given) gave a CC50 in series [1] of 30 µM. Further, in [2], the EC50 was more than 0.1 µM.

For `Cc1ccc(-c2c(C)nc(NC(=O)Nc3ccccc3)c(C)c2C(OC(C)(C)C)C(=O)O)cc1C` (stereo not given), the half-maximal effective concentration (EC50) was more than 1 µM in series [3] and 0.011 µM in series [2]. In [1], the CC50 was 9.9 µM.

Regarding `Cc1nc2ccccc2c(-c2ccc3c4c(ccnc24)CCO3)c1[C@H](OC(C)(C)C)C(=O)O` [BI-224436], the 50% effective concentration (EC50) in series [3] is more than 5 µM; in series [2], 0.022 µM. This molecule also yielded a cytotoxic concentration (CC50) in series [1] of more than 50 µM.

As to `Cc1nc(NC(=O)NC2CCCCC2)c(C)c(C(OC(C)(C)C)C(=O)O)c1-c1ccc2c(c1)CCCO2` (stereo not given), the EC50 in [3] came to 0.56 µM; in series [2], 0.021 µM. It took 17 µM to reach half-maximal cytotoxicity in series [1] (CC50).

In the case of `Cc1ccc(-c2c(C)nc(NC(=O)NC3CCCC3)c(C)c2C(OC(C)(C)C)C(=O)O)cc1C` (stereo not given), the half-maximal effective concentration (EC50) is more than 1 µM in series [3] and 0.0083 µM in series [2]. The molecule also gave a 50% cytotoxic concentration (CC50) in series [1] of 8 µM.

`Cc1ccc(-c2c(C)nc(C(=O)N(C)Cc3ccccc3)c(C)c2C(OC(C)(C)C)C(=O)O)cc1C` (stereo not given) returned a cytotoxic concentration (CC50) in [1] of 77 µM. The EC50 in series [2] was determined as 0.36 µM.

Consider `COc1ccc(-c2c(C)nc(NC(=O)NC3CCCCC3)c(C)c2C(OC(C)(C)C)C(=O)O)cc1` (stereo not given), for which the EC50 is 0.75 µM in [3] and 0.01 µM in series [2]. Moreover, the cytotoxic concentration (CC50) in series [1] worked out at 19 µM.

For `Cc1ccc(-c2c(C)nc(NC(=O)NC3CCOCC3)c(C)c2C(OC(C)(C)C)C(=O)O)cc1C` (stereo not given), the EC50 is more than 5 µM in series [3] and 0.045 µM in series [2]. The same molecule yielded a half-maximal cytotoxic concentration (CC50) in series [1] of 29 µM.

Consider `COc1ccc(Nc2nc(C)c(-c3ccc(C)c(C)c3)c(C(OC(C)(C)C)C(=O)O)c2C)cc1` (stereo not given), for which, in series [1], the 50% cytotoxic concentration (CC50) came out at 28 µM. Further, the EC50 in series [2] was 0.22 µM.

For `Cc1ccc(-c2c(C)nc(NS(=O)(=O)c3cccc4ccccc34)c(C)c2C(OC(C)(C)C)C(=O)O)cc1C` (stereo not given), the values for the EC50 in series [3] and in series [2] were 1 µM and 0.032 µM, respectively. Also, half-maximal cytotoxicity in [1] (CC50) was put at 16 µM.

As to `Cc1ccc(-c2c(C)nc(C(=O)NCc3ccccc3)c(C)c2C(OC(C)(C)C)C(=O)O)cc1C` (stereo not given), in series [1], the CC50 was determined as 54 µM. This molecule also registered an EC50 in series [2] of 0.18 µM.

Regarding `Cc1nc(NC(=O)NC2CCCCC2)c(C)c(C(OC(C)(C)C)C(=O)O)c1-c1ccc2c(c1C)CCCO2` (stereo not given), the EC50 stood at 0.27 µM in series [3] and 0.0066 µM in series [2]. In [1], it took 11 µM to reach half-maximal cytotoxicity (CC50).

As for `Cc1nc(NC(=O)NC2CCCCC2)c(C)c(C(OC(C)(C)C)C(=O)O)c1-c1ccc(C(F)(F)F)cc1` (stereo not given), the figures for the EC50 in series [3] and in series [2] were 7.7 µM and 0.061 µM, respectively. In series [1], this molecule returned a half-maximal cytotoxic concentration (CC50) of 9.8 µM.

Regarding `Cc1nc(NC(=O)NC2CCCCC2)c(C)c(C(OC(C)(C)C)C(=O)O)c1-c1ccc(Cl)cc1` (stereo not given), the results for the 50% effective concentration (EC50) in series [3] and in series [2] were 1.8 µM and 0.017 µM, respectively. The CC50 in [1] was found to be 16 µM.

Turning to `Cc1ccc(-c2c(C)nc(NC(=O)NCCc3ccccc3)c(C)c2C(OC(C)(C)C)C(=O)O)cc1C` (stereo not given), the 50% effective concentration (EC50) in [3] is more than 2 µM; in series [2] it was 0.02 µM. In [1], this molecule gave a CC50 of 11 µM.

For `Cc1ccc(-c2c(C)nc(Nc3nc4ccccc4n3C)c(C)c2C(OC(C)(C)C)C(=O)O)cc1C` (stereo not given), the CC50 in [1] stood at 14 µM. Besides, the EC50 in [2] stood at 0.19 µM.

For the molecule `Cc1ccc(-c2c(C)nc(NC(=O)NC3CCCCCC3)c(C)c2C(OC(C)(C)C)C(=O)O)cc1C` (stereo not given), the figures for the concentration for a half-maximal effect (EC50) in series [3] and in [2] were more than 1 µM and 0.011 µM, respectively. In addition, in series [1], the CC50 was determined as 7.7 µM.

The bioavailability is dose-corrected exposure relative to a reference, in per cent. What is called AUC is concentration integrated over time. Low readings indicate less exposure, high ones more exposure. Turning to `Cc1ccc(-c2c(C)nc(NC(=O)NC3CCCCC3)c(C)c2C(OC(C)(C)C)C(=O)O)cc1C` (stereo not given), in [4], the half-life is 1.6 h. Further, the EC50 in [3] is more than 1 µM; in series [2], 0.0066 µM. In series [5], this molecule displayed a bioavailability of 9.2%. The cytotoxic concentration (CC50) in [1] stood at 7.9 µM. In addition, the area under the curve (AUC) in series [6] came to 127 ng·h/mL. Also, in series [7], the clearance was 12.5 mL/min/kg. Also, the Stabilty in [8] was found to be 65%; in series [9], 66%.

In series [1], `Cc1ccc(-c2c(C)nc(Nc3nc4ccccc4s3)c(C)c2C(OC(C)(C)C)C(=O)O)cc1C` (stereo not given) gave a CC50 of 6.6 µM. In series [2], this molecule gave an EC50 of 0.35 µM.

Turning to `Cc1ccc(-c2c(C)nc(NC(=O)NCc3ccccc3)c(C)c2C(OC(C)(C)C)C(=O)O)cc1C` (stereo not given), the EC50 in [3] is more than 4 µM; in series [2] it was 0.035 µM. In addition, in series [1], half-maximal cytotoxicity (CC50) was put at 17 µM.

Source of the values: ChEMBL document CHEMBL4673360, “Discovery of novel HIV-1 integrase-LEDGF/p75 allosteric inhibitors based on a pyridine scaffold forming an intramolecular hydrogen bond” (Bioorg Med Chem Lett, 2021).
